Measurements as given in BigSolDB 2.1.

CCCCN(CCCC)CC(O)c1cc(Cl)cc2c1-c1ccc(Cl)cc1/C2=C/c1ccc(Cl)cc1 (stereo not given)
solubility (mole fraction)
Details | 278.15 K | 283.15 K | 288.15 K | 293.15 K | 298.15 K | 303.15 K | 308.15 K | 313.15 K | 318.15 K | 323.15 K
in ethanol | 5.32e-05 | 7.11e-05 | 9.63e-05 | 0.000127 | 0.000158 | 0.000213 | 0.000265 | 0.000323 | 0.000401 | 0.000497
in ethyl acetate | 0.00178 | 0.00233 | 0.00315 | 0.00409 | 0.00538 | 0.0069 | 0.009 | 0.0116 | 0.0151 | 0.0201
in methanol | 1.34e-05 | 1.7e-05 | 2.27e-05 | 3.03e-05 | 3.81e-05 | 4.95e-05 | 6.28e-05 | 8.17e-05 | 0.000105 | 0.000136
in methyl acetate | 0.000656 | 0.000903 | 0.00136 | 0.00186 | 0.00262 | 0.00364 | 0.00495 | 0.00669 | 0.00913 | 0.0126
in n-butanol | 0.000137 | 0.000182 | 0.000281 | 0.00038 | 0.000493 | 0.00065 | 0.000851 | 0.00115 | 0.00147 | 0.00187
in n-butyl acetate | 0.00423 | 0.00531 | 0.00672 | 0.00864 | 0.0108 | 0.0137 | 0.0175 | 0.0223 | 0.0285 | 0.0359
in n-heptanol | 0.000337 | 0.000437 | 0.000586 | 0.000781 | 0.0011 | 0.00149 | 0.00193 | 0.00245 | 0.00339 | 0.0045
in n-hexanol | 0.00021 | 0.000315 | 0.000477 | 0.000604 | 0.000886 | 0.00119 | 0.00171 | 0.00214 | 0.00289 | 0.00387
in n-octanol | 0.000352 | 0.000474 | 0.00073 | 0.000945 | 0.00125 | 0.00172 | 0.00221 | 0.00298 | 0.00385 | 0.00516
in n-pentanol | 0.000215 | 0.00028 | 0.000423 | 0.000555 | 0.000745 | 0.000968 | 0.0013 | 0.0017 | 0.0022 | 0.00288
in n-pentyl acetate | 0.00474 | 0.00654 | 0.00846 | 0.011 | 0.0137 | 0.0168 | 0.0211 | 0.0252 | 0.0326 | 0.0406
in n-propanol | 8.62e-05 | 0.000107 | 0.000145 | 0.00021 | 0.000279 | 0.000388 | 0.000502 | 0.000696 | 0.000967 | 0.00131
in n-propyl acetate | 0.00281 | 0.00365 | 0.00485 | 0.00653 | 0.00838 | 0.0109 | 0.0139 | 0.018 | 0.0231 | 0.0304
